Test results: patent US6949553B2, “Aliphatic compounds, their synthesis method, and utilization of the same” (Maruha Corporation, priority 2001, dated 2005)
Like-named read-outs stand apart in the source and are kept apart here.

Assays:
[1] = tested on: mice; experiment: Collagen-induced mouse sudden death model; assay type: in vivo; conditions: 30 μg/kg intravenous 1 hour before 37.5 mg/kg collagen; survival one hour later
Method: As a preliminary study of the effect of the compounds of the present invention on an in vivo pathophysiological model, it was investigated whether the compound of the present invention would suppress collagen-induced mouse sudden death. In this model, pulmonary capillaries are obstructed by a large amount of collagen, and a sudden death is caused by oxygen deficiency.
One hour after a solvent (physiological saline) or 30 μg/kg of Compound 2 was intravenously administered to mice, 37.5 mg/kg of collagen was administered to the caudal vein. One hour later, the survival rate was compared between the groups.

[2] = tested on: vascular smooth muscle cells; experiment: Synthetic type vascular smooth muscle cell proliferation (PDGF, BrdU assay); assay type: cell-based, rat; conditions: 0.3 to 3 μM with PDGF 50 ng/ml, 24 hours
Method: The effect of the study substance on vascular smooth muscle cell proliferation was studied.
Thus, the effect of Compound 2 on the cell proliferation of vascular smooth muscle cells was measured in the following manner:
The rat carotid arterial tunica intima was rubbed by ballooning, and vascular smooth muscle cells were prepared by explant culture. Two weeks later, these cells were cultured in a DMEM culture medium (Gibco) containing 10% fetal bovine serum. The cultures were subcultured several times for stabilization, and then planted at a cell density of 5×10^3 cells/cm^2 for use in experiments. Compound 2 in combination with 50 ng/ml of the growth factor PDGF (Sigma) was added to the above planted cells and, 24 hours later, the cell density was measured by BrdU assay (Science '82, 218, p. 474, Cytometry '85, 6, p. 584). The cell density in the absence of the drug was measured as a control.
Relative smooth muscle cell count (%)=[cell count in the experimental group]/[cell count in the control]×100.

[3] = tested on: platelets; experiment: In vitro platelet aggregation by various inducers, rabbit platelets; assay type: cell-based; conditions: for IC50: Oryctolagus cuniculus, Platelet, rabbit platelets, read-out: 50% inhibition point, IC50, for in vitro platelet aggregation
Excerpt: Next, the suppression of platelet aggregation by the compounds of the present invention was studied in the same manner as described above with the use of not only collagen, but also arachidonic acid, ADP, thrombin, serotonin, epinephrine and U46619 (pseudo-thromboxane A2 substance) as inducers.
As platelets, platelets prepared from rats and guinea pigs as well as rabbits were also used.
Collagen and ADP were purchased from MCM, and used in accordance with the method of preparation described in the manuals attached to the purchased products. Serotonin, epinephrine and thrombin were purchased from Sigma, and used as solutions in physiological saline for injection (Otsuka Pharmaceutical Factory). Arachidonic acid was purchased from Cayman, and dispersed in physiological saline for injection (Otsuka Pharmaceutical Factory) with the use of an immersion type ultrasonic oscillator (US150, NIPPON SEIKI, tip end diameter ca. 3.5 mm). U46619 (pseudo-thromboxane substance) was purchased from FUNAKOSHI, and dissolved in physiological saline for injection (Otsuka Pharmaceutical Factory) when used.
Collagen (0.1 to 1 μg/ml), arachidonic acid (1 mM), ADP (1 μM), thrombin (1 U/ml), serotonin (100 μM), epinephrine (100 to 200 μM), and U46619 (3 μM) were used.
Indomethacin was used as a positive control for measuring the suppression of platelet aggregation induced by collagen.

CC/C=C\C/C=C\C/C=C\C/C=C\C/C=C\C/C=C\CCC(=O)NCCC1CCCN1C (racemic) [Compound 2, (4Z,7Z,10Z,13Z,16Z,19Z)-N-[2-(1-methylpyrrolidin-2-yl)ethyl]docosahexaenoamide]
Survival rate [1]: 7/10 | vascular smooth muscle cell proliferation (in words) [2]: suppress vascular smooth muscle cell proliferation concentration-dependently | IC50 ([3]; inducer ADP (1 μM)): > 100 µM | IC50 ([3]; inducer U46619 (3 μM)): 50 ± 10 µM | IC50 ([3]; inducer arachidonic acid (1 mM)): > 100 µM | IC50 ([3]; inducer collagen (0.1 to 1 μg/ml)): 2.1 ± 0.8 µM | inhibition of platelet aggregation induced by arachidonic acid, ADP and thrombin (in words) ([3]; platelets from the rabbit, the rat or the guinea pig): either did not inhibit platelet aggregation, or even when it inhibited platelet aggregation, its degree of inhibition was very low
